Results: patent US12649717B2, “Cyanine-derived compound, preparation method therefor, and application thereof” (priority 2020, dated 2026)

Columns and labels:
Rat cardiomyocytes = assay: 3D-laser confocal time-series imaging of labeled rat cardiomyocytes; type: cell-based; conditions: 250 nM, 10-15 minutes staining
Method: Then, different microscopic imaging experiments were carried out.

HeLa cells = assay: Phototoxicity assay: HeLa cell viability (PI staining) after LED irradiation; conditions: for Cell viability under 1-minute irradiation / Cell viability under 5-minute irradiation / Cell viability under 15-minute irradiation: PI viability counting after 2 hours at 37° C.
Method: HeLa cells were irradiated with corresponding LED light (same light intensity for the same channel) for different periods of time under a widefield fluorescence microscope. The irradiated cells were incubated for 2 hours in a cell incubator at 37° C. Then, the cells were stained with propidium iodide (PI) for viability counting.

Compound	Time sequences after which labeled cells violently contracted to death (Rat cardiomyocytes) [time sequences]	Cell viability under 1-minute irradiation (HeLa cells) [%]	Cell viability under 5-minute irradiation (HeLa cells) [%]	Cell viability under 15-minute irradiation (HeLa cells) [%]	Phototoxicity relative to commercial dyes (times less phototoxic) (HeLa cells; HeLa cells, versus MTR CMXRos, MTDR (b53 also versus non-optimized compounds of 1-6))	Phototoxicity comparison (in words) (HeLa cells; cell viability after continuous irradiation under high light intensity)
C[N+]1=C(/C=C/C=C/C=C2\N(Cc3ccc(CCl)cc3)c3ccccc3C2(C)C)C(C)(C)c2ccccc21.[Cl-] [MitoTracker Deep Red FM]	8	100	0	0		
ClCc1ccc(C2=c3cc4c5c(c3Oc3c2cc2c6c3CCCN6CCC2)CCC[N+]=5CCC4)cc1.[Cl-] [MitoTracker Red CMXRos]		86.9	0	0		
CC1(C)C(/C=C/C=C2/N(CCOC(=O)c3ccccc3)c3ccc4ccccc4c3C2(C)C)=[N+](CCOC(=O)c2ccccc2)c2ccc3ccccc3c21.[Br-] [Probe 1-6-1]		100	95	25		
CC1=[N+](CCN)c2ccc3ccccc3c2C1(C)C.[Br-] [Probe 1-6]		100	99	95	about 5 times	lower phototoxicity
